The subject of one test is ARNT dimers. Kind of test: Native gel analysis of total kidney lysates after Arnt pulldown (UUO mice). Format: in vivo. The conditions noted are these: UUO mice treated with FK506; without interaction with HIF1α, HIF2α or AHR. The source says: Tissue and cells were homogenized in NP40 lysis buffer (Life technologies, Carlsbad, USA) supplemented with protease inhibitor cocktail (Roche, Basel, Switzerland). After sonication, protein samples were resolved by a 4-12% Bis-Tris polyacrylamide gel electrophoresis system (Novex, Carlsbad, USA) and transferred onto a nitrocellulose membrane (GE Healthcare, Freiburg, Deutschland), followed by a blocking step with 5% dry milk or 5% bovine serum albumin (BSA) in TBS-T (TBS pH 7.2, 0.1% Tween-20) to prevent unspecific bindings. After incubation with respective primary antibodies against ALK3 (ABD51, Merck Millipore, Billerica, USA) and ALK6 (ABD50, Merck Millipore, Billerica, USA), pSmad1/5/8 (13820, Cell Signaling, Danvers, USA), Arnt (3718, Cell Signaling, Danvers, USA), Fkbp12 (ab2918, Abcam Biochemicals, Cambridge, UK), NFATc1 (sc-7294, Santa Cruz Biotechnology, Dallas, USA), NFATc2 (sc-7295, Santa Cruz Biotechnology, Dallas, USA), β-actin (A5316, Sigma, St. Louis, USA) and Gapdh (5G4, HyTest, Turku, Finland), secondary HRP-conjugated antibodies were used (Dako, Glostrup, Denmark). Luminescence was detected by using chemiluminescent substrate (Cell Signaling, Danvers, USA) on a ChemiDoc XRS system (Bio-Rad, Hercules, USA). Native protein samples were prepared with Native PAGE Sample Prep kit (Novex, Carlsbad, USA) according to the manufacturer's instruction. […]

A further test has as its system TEC cultures. Kind of test: RT2 Profiler PCR arrays (transcription factor, hypoxia, drug metabolism) in TECs. The format is cell-based. The method, then:
To compare qPCR-validated cDNA samples after FK506 treatment and DMSO control, gene expression profiling was performed using commercially available plates (PAHS-075Z/PAMM-002Z/PAMM032Z, SABiosciences, Qiagen, Hilden, Germany). HK-2 cells were plated in 6 well culture plates as previously described and stimulated with 150 ng/mL FK506, MCT cells with 200 pM FK506. After 6 hours, cells were dissolved and RNA was isolated, digested and reverse transcripted. The 25 ng cDNA equivalent of total RNA was added to the reaction mixture containing diluted 2× RT^2 SYBR Green ROX qPCR Mastermix (Qiagen, Hilden, Germany) in a final volume of 25 μL for each well of the RT2 Profiler PCR. PCR reactions were performed under recommended thermal cycling conditions (10 min at 95° C., 15 s at 95° C., 1 min at 60° C. for 40 cycles). To verify PCR specificity, dissociation curve analysis was generated. Relative levels of mRNA expression were normalized in all the samples with expression levels of included housekeeping genes, and data analysis was done using an web-based analysis software provided by SABiosciences. Transcription factor binding sites within the ALK3 proximal promoter was performed 5000 basepairs relative to transcriptional start site using […] database (98).

In the case of `C=CC[C@@H]1/C=C(\C)C[C@H](C)C[C@H](OC)[C@H]2O[C@@](O)(C(=O)C(=O)N3CCCC[C@H]3C(=O)O[C@H](/C(C)=C/[C@@H]3CC[C@@H](O)[C@H](OC)C3)[C@H](C)[C@@H](O)CC1=O)[C@H](C)C[C@@H]2OC` [FK506, tacrolimus], the “formation of ARNT dimers in total kidney lysates” value in the test with ARNT dimers was “increased formation of ARNT dimers”. In the test on TEC cultures (TEC cultures upon FK506 exposure), the “induction of transcriptional factors AR, ARNT, CEPB, CREB1, GATA3 and MAX (array)” value is given as “at least 2 fold”. Besides, the “pathways involved in hypoxic signaling or drug metabolism (mRNA expression arrays)” value in the test on TEC cultures (TECs exposed to FK506) is “did not markedly induce”.
